Results taken from US6569805B1, “Herbicidal compositions” (Aventis CropScience GmbH, priority 1999, dated 2003).
Values joined by “and” are separate entries in the source; they are usually repeats but may differ in a detail not shown here. Equal entries are not always repeated.

Legend:
Assay type in all cases: in vivo
Chenopodium album = assay: Greenhouse pot test, post-emergence spray, damage evaluated visually 2-3 weeks after treatment (Example 3); details: herbicide 0.015 kg/ha without vegetable oil
Method: (§1) Seeds or rhizome pieces of monocotyledonous and dicotyledonous harmful plants and useful plants were placed in sandy loam in pots of diameter 9 to 13 cm and covered with soil. The pots were kept in a greenhouse under optimal conditions. In the two- to three-leaf stage, i.e. approximately three weeks after cultivation has begun, the test plants were treated with the herbicides and vegetable oil in the form of aqueous dispersions or suspensions or emulsions and the green parts of the plant were sprayed with various dosage rates at an application rate of (converted) 300 l of water/ha. To grow the plants further, the pots were kept in the greenhouse under optimal conditions. The damage to the useful plants and harmful plants was evaluated visually 2-3 weeks after the treatment using the following scheme: 100%=total destruction, 0%=no action. The test results are shown in the table hereinbelow, the action of the herbicide/safener combination and of the vegetable oil when used separately being stated in brackets: […]

Echinochloa crus galli = assay: as above; details: herbicide 0.015 kg/ha without vegetable oil
Method: as §1

Sorghum halepense = assay: as above; details: herbicide 0.015 kg/ha without vegetable oil
Method: as §1

Cyperus esculentus = assay: Greenhouse test under paddy rice conditions, visual scoring about 3 weeks after application (Example 4); details: herbicide 0.004 kg/ha without vegetable oil
Method: (§2) Rice, and Cyperus esculentus as typical harmful plant, were grown in a greenhouse under paddy rice conditions (flooding level of the water 2-3 cm) in sealed plastic pots and sprayed with an active substance preparation at an application rate of (converted) 600 l/ha. The test plants were then placed in the greenhouse under optimal growth conditions and kept like this over the entire test period. Approximately 3 weeks after the application, they were evaluated by means of visually scoring the damage to the plants in comparison with the untreated control, using the following scheme: 100%=total destruction, 0%=no action. The test results are shown in the table hereinbelow, the action of the herbicide/safener combination and of the vegetable oil when used separately being stated in brackets: […]

Rice = assay: as above; details: crop plant, herbicide 0.004 kg/ha without vegetable oil
Method: as §2

| SMILES | CHEAL Action (%), herbicide used separately (first value in brackets) (Chenopodium album) | ECHCG Action (%), herbicide used separately (first value in brackets) (Echinochloa crus galli) | SORHA Action (%), herbicide used separately (first value in brackets) (Sorghum halepense) | CYPES Action (%), herbicide used separately (first value in brackets) (Cyperus esculentus) [%] | Rice Action (%), herbicide used separately (first value in brackets) (Rice) |
| --- | --- | --- | --- | --- | --- |
| COc1cc(OC)nc(NC(=O)NS(=O)(=O)c2ncccc2C(=O)N(C)C)n1 [V1, Nicosulfuron] | (0 + 0) % | 0 (0 + 0) % and 0% | (0 + 0) % | – | – |
| CCOc1ccccc1OS(=O)(=O)NC(=O)Nc1nc(OC)cc(OC)n1 [A13, 1-(4,6-dimethoxypyrimidin-2-yl)-3-(2-ethoxyphenoxysulfonyl)urea] | – | – | – | 35 | 0 (0 + 0) % |
